# Test results: patent US9790235B2, “MK2 inhibitors and uses thereof” (Celgene CAR LLC, priority 2014, dated 2017)
# Read-outs that look alike come from different tables or passages of the source.
# How the values were obtained:
# MK2 [1] = molecular target: T1, MK2 (Homo sapiens (Human), UniProt P49137); test: MK2 cellular assay, total and phospho-Hsp27 (Serine 78) by MSD ELISA (Thp1); assay type: cell-based; conditions: Thp-1 cells, 1 hour compound, 50 ng/mL LPS 45 minutes, p-HSP27 (Ser78)/total HSP27; read-out: pHSP27 signaling EC50
# Experimental: MK2 Cellular Assay—Detection of Total and Phospho-Hsp27 (Serine 78) by MSD ELISA (Thp1)
# Compounds of the invention were assayed in Thp-1 human acute monocytic leukemia cells to measure inhibition of MK2 activity. Thp-1 cells were grown in culture medium containing RPMI/10% FBS (fetal bovine serum)/0.05 mM 2-mercaptoethanol. 72 hours prior to the assay, 8×10^4 cells per well were plated in a 96 well flat bottom plate along with 10 ng/mL phorbol 12-myristate 13-acetate (PMA). Cells were cultured in an incubator at 37° C. until needed for the assay. Cell plate media was replaced with culture media just prior to assay while compound dilutions were being made.
# Stock solutions of test compound, 1 mM in DMSO, were prepared. 0.9 μl of test compound was added to 300 μl cell media for a starting concentration of 3000 nM. […] Cell plate media was discarded, followed by addition of 100 μl of the compound containing media. The resulting preparation was incubated at 37° C. for 1 hour.
# Test compound-containing cell assay media was removed and the cells were washed once with cell assay media. Cell assay media containing 50 ng/mL LPS (lipopolysaccharide) was added to the each well and incubated for 45 minutes. Following LPS incubation, the cells were washed once with PBS (phosphate-buffered saline) and lysed with 60 μl Cell Extraction Buffer (Invitrogen #FNN0011) plus protease and phosphatase inhibitors. The plate was then stored at −80° C. until further analysis.
# The MULTI-SPOT Phospho(Ser78)/Total HSP27 ELISA Assay kit was purchased from Meso Scale […] (MSD; catalog #K15128D). […] The pre-coated MSD plate was blocked with 150 μL/well of 3% BSA in MSD wash buffer. The preparation was placed on a shaker at room temperature for an hour. While the ELISA plate was blocked, the cell assay plate stored at −80° C. was placed on a shaker at 4° C. for 1 hour to thaw.
# The blocked MSD plate was washed on a plate washer, tapping out the last bit of wash solution, followed by addition of 30 μl of the lysate from the cell assay plate. The preparation was covered and incubated for 1 hour at room temperature. The lysate was removed, the plate was washed 3 times on a plate washer and the last bit of wash buffer was tapped out and replaced with 25 μl/well detection antibody (anti-total HSP27 conjugated with an electrochemiluminescent compound, MSD SULFO-TAG label, supplied in kit) made in 1% BSA/MSD wash buffer. The plate was incubated for 1 hour at room temperature on a shaker, followed by 3 washes. The last bit of wash buffer was tapped out. 150 μl/well 1×MSD read buffer was added (4× read buffer supplied with kit) and the plate was analyzed on the MSD SECTOR® Imager for analysis. The SECTOR® Imager measures intensity of emitted light to provide a quantitative measure of phosphorylated HSP27 (Ser78) and total HSP27 present in the sample. The relative percent phosphoprotein in a sample is calculated by dividing the Phospho-HSP27 signal intensity over the total HSP27 signal intensity measured in each well.
# MK2 [2] = molecular target: T1, MK2
# Experimental: Aliquots of the resulting mixture (6 μL each) were diluted with 0.2% trifluoroacetic acid (TFA, 10 μL) prior to micro C4 ZipTipping directly onto the MALDI target using sinapinic acid as the desorption matrix (10 mg/ml in 0.1% TFA:acetonitrile 50:50, v/v). The centroid mass of the target protein in the control sample was compared with the centroid mass of the target protein incubated with compound. A shift in the centroid mass of the treated protein compared to the untreated protein was divided by the molecular weight of the compound. This number corresponds to the percentage of modified protein (a measure of the proportion of total target protein covalently bound to the test compound) after one hour incubation.
# 3 μL of magnetic Ni-NTA beads were added to the 6 μL aliquots of sample, washed, eluted with 0.2% trifluoroacetic acid (TFA, 2 μL), and spotted directly onto the MALDI target using sinapinic acid as the desorption matrix (10 mg/ml in 0.1% TFA:acetonitrile 50:50, v/v). The centroid mass of the target protein in the control sample was compared with the centroid mass of the target protein incubated with compound. A shift in the centroid mass of the treated protein compared to the untreated protein was divided by the molecular weight of the compound. This number corresponds to the percentage of modified protein (a measure of the proportion of total target protein covalently bound to the test compound) after one hour incubation.
# [3] = molecular target: p38α activated, mitogen-activated protein kinase-activated protein kinase 2 (MAPKAP-K2 or MK2) enzyme (Homo sapiens (Human), UniProt P49137); test: MK2 Omnia continuous-read kinase assay for compound potency; assay type: biochemical; conditions: read-out: MK2 IC50
# Description: Mitogen-Activated Protein Kinase-Activated Protein Kinase 2 Omnia® Assay for Compound Potency Assessment:
# The protocol below describes a continuous-read kinase assay optimized to measure potency of compounds against p38α activated, mitogen-activated protein kinase-activated protein kinase 2 (MAPKAP-K2 or MK2) enzyme. Further details of this assay are described by Life Technologies, Carlsbad, Calif. on their website at the following URL: http://tools.lifetechnologies.com/content/sfs/manuals/omnia_kinase_assay_man.pdf.
# [Reagent] used: • [MK-2]=0.4 nM, • [ATP]=10 μM and • [ST3-Sox]=10 μM (ATP^appKM=10 μM)
# Kinase reactions were started with the addition of 45 μL of the ATP-peptide substrate S/T3-Sox mix and monitored every 71 seconds for 120 minutes at λex360/λem485 in a Synergy H4 plate reader from BioTek (Winooski, Vt.) at room temperature.
# Background signals from the no enzyme control wells were subtracted from all progress curves. The initial linear portions of the net progress curves were fit according to a linear equation to yield the slope and percentage of inhibition (% inhibition) at each compound concentration. The net progress curves obtained during the first two hours of reactions were also fit according to an ascending single-exponential equation (Eq. 1) to yield kobs values at each compound concentration. Plots of % Inhibition versus inhibitor concentrations were fit according to a dose-response equation (Eq. 2) to generate IC50 and Hill slope values while plots of kobs versus inhibitor concentration were fit according to Equation 3 (Eq. 3) to generate apparent kinact/KI values using the GraphPad PRISM software (Version 6.00; GraphPad San Diego, Calif.).
# [formula] where F is the fluorescence intensity from the plate reader, V0 is a constant reflecting the relationship between the instrument readout and product concentration, t is time, e is Euler's number, and kobs is the observed inactivation rate constant.
# [formula] where % Inhibition is percentage of inhibition, IC50 is half maximal inhibitory concentration, [I] is the inhibitor concentration, and n is the Hill slope.
# [4] = percentage of modified protein after 60 minutes at room temperature, 10-fold excess of compound, MALDI (I-1 to I-50), magnetic bead MALDI (I-51 to I-129)
# [5] = [MK-2]=0.4 nM, [ATP]=10 μM, [ST3-Sox]=10 μM
# 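Throughout, for Mass Modification: covalent binding read from centroid mass shift of compound-treated versus untreated intact MK2, shift divided by compound molecular weight, giving fraction of total protein bound.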
# T1 sequence (P49137 whole entry): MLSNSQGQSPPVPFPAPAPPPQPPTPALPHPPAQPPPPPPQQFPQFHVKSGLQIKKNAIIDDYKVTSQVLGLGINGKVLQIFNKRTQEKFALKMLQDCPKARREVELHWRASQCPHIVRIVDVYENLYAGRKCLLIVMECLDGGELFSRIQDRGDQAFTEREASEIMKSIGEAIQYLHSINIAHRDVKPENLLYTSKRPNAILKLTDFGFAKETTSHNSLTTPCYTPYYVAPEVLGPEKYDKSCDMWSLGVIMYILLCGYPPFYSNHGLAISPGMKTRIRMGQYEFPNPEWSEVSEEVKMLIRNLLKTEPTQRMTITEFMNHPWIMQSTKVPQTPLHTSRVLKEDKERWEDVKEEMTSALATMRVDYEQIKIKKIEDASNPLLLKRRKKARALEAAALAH
# Sequence of p38α activated, mitogen-activated protein kinase-activated protein kinase 2 (MAPKAP-K2 or MK2) enzyme (P49137 whole entry): as above
SMILES,EC50 (MK2 [1]) [nM],Mass Modification (MK2 [2]; [4]),"IC50 [3, 5] [nM]",Mass Modification (MK2 [2]),IC50 [3] [nM]
"C[C@@H]1CNc2c(sc3ccc4nc(Nc5nc(Cl)ncc5C(N)=O)ccc4c23)C(=O)N1 [I-9, (R)-2-chloro-4-((10-methyl-8-oxo-9,10,11,12-tetrahydro-8H-[1,4]diazepino[5′,6′:4,5]thieno[3,2-f]quinolin-3-yl)amino)pyrimidine-5-carboxamide]",< 100,E (mass modification of ≧70%),< 100,–,–
"C[C@@H]1CNc2c(sc3ccc4nc(Nc5nc(Cl)nc(N6CCN(C)CC6)n5)ccc4c23)C(=O)N1 [I-10, (R)-3-((4-chloro-6-(4-methylpiperazin-1-yl)-1,3,5-triazin-2-yl)amino)-10-methyl-9,10,11,12-tetrahydro-8H-[1,4]diazepino[5′,6′:4,5]thieno[3,2-f]quinolin-8-one]",101 to 500,G (mass modification ≦30%),< 100,–,–
"C[C@@H]1CNc2c(sc3ccc4nc(Nc5ccnc(S(C)(=O)=O)n5)ccc4c23)C(=O)N1 [I-14, (R)-10-methyl-3-((2-(methylsulfonyl)pyrimidin-4-yl)amino)-9,10,11,12-tetrahydro-8H-[1,4]diazepino[5′,6′:4,5]thieno[3,2-f]quinolin-8-one]",> 1000,G (mass modification ≦30%),< 100,–,–
"C[C@@H]1CNc2c(sc3ccc4nc(Nc5cc(Cl)ncc5C(N)=O)ccc4c23)C(=O)N1 [I-15, (R)-6-chloro-4-((10-methyl-8-oxo-9,10,11,12-tetrahydro-8H-[1,4]diazepino[5′,6′:4,5]thieno[3,2-f]quinolin-3-yl)amino)nicotinamide]",> 1000,G (mass modification ≦30%),< 100,–,–
"C[C@@H]1CNc2c(sc3ccc4nc(Nc5nc(Cl)ncc5C#N)ccc4c23)C(=O)N1 [I-16, (R)-2-chloro-4-((10-methyl-8-oxo-9,10,11,12-tetrahydro-8H-[1,4]diazepino[5′,6′:4,5]thieno[3,2-f]quinolin-3-yl)amino)pyrimidine-5-carbonitrile]",< 100,E (mass modification of ≧70%),< 100,–,–
"O=C1N[C@H](CO)CNc2c1sc1ccc3nc(Nc4cc(F)ncn4)ccc3c21 [I-17, (S)-3-((6-fluoropyrimidin-4-yl)amino)-10-(hydroxymethyl)-9,10,11,12-tetrahydro-8H-[1,4]diazepino[5′,6′:4,5]thieno[3,2-f]quinolin-8-one]",> 1000,F (mass modification of 31-69%),< 100,–,–
"CCOC(=O)c1cnc(Cl)nc1Nc1ccc2c(ccc3sc4c(c32)NC[C@@H](C)NC4=O)n1 [I-18, (R)-ethyl 2-chloro-4-((10-methyl-8-oxo-9,10,11,12-tetrahydro-8H-[1,4]diazepino[5′,6′:4,5]thieno[3,2-f]quinolin-3-yl)amino)pyrimidine-5-carboxylate]",101 to 500,F (mass modification of 31-69%),< 100,–,–
"O=C1N[C@H](CO)CNc2c1sc1ccc3nc(Nc4cc(Cl)ncn4)ccc3c21 [I-22, (S)-3-((6-chloropyrimidin-4-yl)amino)-10-(hydroxymethyl)-9,10,11,12-tetrahydro-8H-[1,4]diazepino[5′,6′:4,5]thieno[3,2-f]quinolin-8-one]",501 to 999,F (mass modification of 31-69%),< 100,–,–
"C[C@@H]1CNc2c(sc3ccc4nc(Nc5nc(Cl)ncc5C(=O)N5CC[C@@H](N(C)C)C5)ccc4c23)C(=O)N1 [I-24, (R)-3-((2-chloro-5-((R)-3-(dimethylamino)pyrrolidine-1-carbonyl)pyrimidin-4-yl)amino)-10-methyl-9,10,11,12-tetrahydro-8H-[1,4]diazepino[5′,6′:4,5]thieno[3,2-f]quinolin-8-one]",> 1000,G (mass modification ≦30%),501 to 999,–,–
"C[C@@H]1CNc2c(sc3ccc4nc(Nc5cc(Cl)ncc5C#N)ccc4c23)C(=O)N1 [I-25, (R)-6-chloro-4-((10-methyl-8-oxo-9,10,11,12-tetrahydro-8H-[1,4]diazepino[5′,6′:4,5]thieno[3,2-f]quinolin-3-yl)amino)nicotinonitrile]",< 100,–,–,F (key: E: mass modification of ≧70%; F: mass modification of 31-69%; G: mass modification ≦30%),< 100
"NC[C@@H]1CNc2c(sc3ccc4nc(Nc5cc(F)ncn5)ccc4c23)C(=O)N1 [I-26, (R)-10-(aminomethyl)-3-((6-fluoropyrimidin-4-yl)amino)-9,10,11,12-tetrahydro-8H-[1,4]diazepino[5′,6′:4,5]thieno[3,2-f]quinolin-8-one]",> 1000,E (mass modification of ≧70%),< 100,–,–
"C[C@@H]1CNc2c(sc3ccc4nc(Oc5nc(Cl)ncc5CN5CCC[C@H]5C)ccc4c23)C(=O)N1 [I-99, (R)-3-((2-chloro-5-(((R)-2-methylpyrrolidin-1-yl)methyl)pyrimidin-4-yl)oxy)-10-methyl-9,10,11,12-tetrahydro-8H-[1,4]diazepino[5′,6′:4,5]thieno[3,2-f]quinolin-8-one]",< 100,–,< 100,–,–
C[C@@H]1CNc2c(sc3ccc4nc(Oc5nc(Cl)ncc5CN5CCC[C@@H]5C)ccc4c23)C(=O)N1 [I-101],< 100,–,< 100,–,–
"C[C@@H]1CNc2c(sc3ccc4nc(Oc5ncncc5CN(C)C(C)(C)C)ccc4c23)C(=O)N1 [I-104, (R)-3-((5-((tert-butyl(methyl)amino)methyl)pyrimidin-4-yl)oxy)-10-methyl-9,10,11,12-tetrahydro-8H-[1,4]diazepino[5′,6′:4,5]thieno[3,2-f]quinolin-8-one]",> 1000,–,501 to 999,–,–
"CO[C@H]1CCCN(Cc2cnc(Cl)nc2Oc2ccc3c(ccc4sc5c(c43)NC[C@@H](C)NC5=O)n2)C1 [I-106, (R)-3-((2-chloro-5-(((S)-3-methoxypiperidin-1-yl)methyl)pyrimidin-4-yl)oxy)-10-methyl-9,10,11,12-tetrahydro-8H-[1,4]diazepino[5′,6′:4,5]thieno[3,2-f]quinolin-8-one]",< 100,–,101 to 500,–,–
"C[C@@H]1CNc2c(sc3ccc4nc(Oc5nc(Cl)ncc5-c5cccnc5)ccc4c23)C(=O)N1 [I-123, (R)-3-((2-chloro-5-(pyridin-3-yl)pyrimidin-4-yl)oxy)-10-methyl-9,10,11,12-tetrahydro-8H-[1,4]diazepino[5′,6′:4,5]thieno[3,2-f]quinolin-8-one]",< 100,–,< 100,–,–
